Experiment: 3-Month stability data for TTI-101 Batches B, C, D and E stored at 40° C./75% RH
Type: physicochemical
Description: Exemplary HPLC conditions: diluent was 0.1% trifluoroacetic acid (TFA) in acetonitrile, Mobile Phase A was 0.05% TFA in water, and Mobile Phase B was 0.05% TFA in acetonitrile, column (Agilent, Eclipse XDB-C18, 3.0×100 mm, particle size 1.8 μm), flow (0.425 mL/min), and detector (280 nm diode array).
Batches B, C, and D were prepared according to Method 5, Method 4, and Method 3, respectively, as described in Example 1. Batch E was prepared analogously using according to Method 1 as described in Example 1.
Samples of TTI-101 (Batches B, C, D, and E) were stored at 40° C./75% RH for 3 months. The batches were individually stored in an low density polyethylene (LDPE) bag enclosed with a Nylon cable tie and then transferred to another LDPE bag and enclosed with a Nylon cable tie. The enclosure was put into a high density polyethylene (HDPE) bottle and closed with a polyethylene-lined polypropylene cap. For Batch B only, another sample was enclosed in a screw-top amber glass bottle and closed with a cap. The samples were stored under the above-identified conditions.

COc1ccc(S(=O)(=O)Nc2cc(-c3c(O)ccc4ccccc34)c(O)c3ccccc23)cc1 [TTI-101]
Impurity RRT 0.84, Area % (0 M): NQ (≥0.02% and <0.05%)
Impurity RRT 0.87, Area % (0 M): NQ (≥0.02% and <0.05%)
Impurity RRT 1.06 (Cmp 4), Area % (0 M): NQ (≥0.02% and <0.05%)
Impurities Total, Area % (0 M, listed as Batch C): 0.4 Area %
Impurity RRT 0.99, Area % (0 M, listed as Batch C): 0.06 Area %
Impurity RRT 1.16 (Cmp 6), Area % (0 M, listed as Batch C): 0.31 Area %
Impurities Total, Area % (0 M, listed as Batch D): 0.1 Area %
Impurity RRT 1.16 (Cmp 6), Area % (0 M, listed as Batch D): 0.10 Area %
Impurities Total, Area % (0 M, listed as Batch E): 0.1 Area %
Impurity RRT 1.16 (Cmp 6), Area % (0 M, listed as Batch E): 0.10 Area %
Impurities Total, Area % (1 M, listed as Batch C): 0.1 Area %
Impurity RRT 0.99, Area % (1 M, listed as Batch C): NQ (≥0.02% and <0.05%)
Impurity RRT 1.17 (Cmp 6), Area % (1 M, listed as Batch C): 0.12 Area %
Impurities Total, Area % (1 M, listed as Batch D): 0.1 Area %
Impurity RRT 1.17 (Cmp 6), Area % (1 M, listed as Batch D): 0.09 Area %
Impurities Total, Area % (1 M, listed as Batch E): 0.1 Area %
Impurity RRT 0.99, Area % (1 M, listed as Batch E): NQ (≥0.02% and <0.05%)
Impurity RRT 1.17 (Cmp 6), Area % (1 M, listed as Batch E): 0.09 Area %
Impurity RRT 0.99, Area % (2 M): NQ (≥0.02% and <0.05%)
Impurity RRT 1.06 (Cmp 4), Area % (2 M): NQ (≥0.02% and <0.05%)
Impurities Total, Area % (2 M, listed as Batch C): 0.1 Area %
Impurity RRT 1.17 (Cmp 6), Area % (2 M, listed as Batch C): 0.13 Area %
Impurities Total, Area % (2 M, listed as Batch D): 0.1 Area %
Impurity RRT 1.17 (Cmp 6), Area % (2 M, listed as Batch D): 0.09 Area %
Impurities Total, Area % (2 M, listed as Batch E): 0.1 Area %
Impurity RRT 1.17 (Cmp 6), Area % (2 M, listed as Batch E): 0.09 Area %
Impurity RRT 0.95, Area % (3 M): NQ (≥0.02% and <0.05%)
Impurity RRT 0.98, Area % (3 M): NQ (≥0.02% and <0.05%)
Impurity RRT 1.06 (Cmp 4), Area % (3 M): NQ (≥0.02% and <0.05%)
Impurities Total, Area % (3 M, listed as Batch C): 0.3 Area %
Impurity RRT 1.16 (Cmp 6), Area % (3 M, listed as Batch C): 0.31 Area %
Impurities Total, Area % (3 M, listed as Batch D): 0.1 Area %
Impurity RRT 1.16 (Cmp 6), Area % (3 M, listed as Batch D): 0.11 Area %
Impurities Total, Area % (3 M, listed as Batch E): 0.2 Area %
Impurity RRT 1.16 (Cmp 6), Area % (3 M, listed as Batch E): 0.16 Area %
Purity (%) (T = 0 month (0 M), listed as Batch C): 99.6%
Purity (%) (T = 0 month (0 M), listed as Batch D): 99.9%
Purity (%) (T = 0 month (0 M), listed as Batch E): 99.9%
Purity (%) (T = 1 month (1 M), listed as Batch C): 99.8%
Purity (%) (T = 1 month (1 M), listed as Batch D): 99.9%
Purity (%) (T = 1 month (1 M), listed as Batch E): 99.9%
Purity (%) (T = 2 months (2 M), listed as Batch C): 99.8%
Purity (%) (T = 2 months (2 M), listed as Batch D): 99.9%
Purity (%) (T = 2 months (2 M), listed as Batch E): 99.9%
Purity (%) (T = 3 months (3 M), listed as Batch C): 99.6%
Purity (%) (T = 3 months (3 M), listed as Batch D): 99.9%
Purity (%) (T = 3 months (3 M), listed as Batch E): 99.8%

Source: patent US20240033234A1, “THERAPEUTIC COMPOUNDS, FORMULATIONS, AND USE THEREOF” (Tvardi Therapeutics, Inc., priority 2022, published 2024)
